# Test results from PubChem BioAssay AID2060884 (Molecular Pharmacology Branch, DTP, NCI, 2025).
# Where “and” joins values, the source holds several entries; their conditions need not be identical. Identical values can stand only once.
# System: NCI-H929 complex spheroids, viability % test/control
# Assay: Anticancer human tumor NCI-H929 cell line growth inhibition [RAS];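 further: compound exposure lasted seven days before viability was read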;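 on viability, T/C: 100% = DMSO vehicle control viability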
# Details: for viability, T/C: stronger effect = lower value
# Procedure, shortened: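 Agents were tested in combination matrices in half-log decrements from a top concentration at or near clinical Cmax (10 microM if undetermined). Targets were multi-cell spheroids of tumour lines plus HUVEC and MSC stromal cells.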
# [1] = curve of first compound, second compound 0.0316 µM
# [2] = curve of first compound, second compound 0.1 µM
# [3] = curve of first compound, second compound 0.316 µM
# [4] = curve of first compound, second compound 1 µM
# [5] = curve of first compound, second compound 3.16 µM
# [6] = curve of first compound, second compound 10 µM
# [7] = second compound 0.0316 µM, first compound 0.0316 µM
# [8] = second compound 0.0316 µM, first compound 0.1 µM
# [9] = second compound 0.0316 µM, first compound 0.316 µM
# [10] = second compound 0.0316 µM, first compound 1 µM
# [11] = second compound 0.1 µM, first compound 0.0316 µM
# [12] = second compound 0.1 µM, first compound 0.1 µM
# [13] = second compound 0.1 µM, first compound 0.316 µM
# [14] = second compound 0.1 µM, first compound 1 µM
# [15] = second compound 0.316 µM, first compound 0.0316 µM
# [16] = second compound 0.316 µM, first compound 0.1 µM
# [17] = second compound 0.316 µM, first compound 0.316 µM
# [18] = second compound 0.316 µM, first compound 1 µM
# [19] = second compound 1 µM, first compound 0.0316 µM
# [20] = second compound 1 µM, first compound 0.1 µM
# [21] = second compound 1 µM, first compound 0.316 µM
# [22] = second compound 1 µM, first compound 1 µM
# [23] = second compound 3.16 µM, first compound 0.0316 µM
# [24] = second compound 3.16 µM, first compound 0.1 µM
# [25] = second compound 3.16 µM, first compound 0.316 µM
# [26] = second compound 3.16 µM, first compound 1 µM
# [27] = second compound 10 µM, first compound 0.0316 µM
# [28] = second compound 10 µM, first compound 0.1 µM
# [29] = second compound 10 µM, first compound 0.316 µM
# [30] = second compound 10 µM, first compound 1 µM
smiles,measurement,setting,value
CC(Nc1ccc2c(c1)OCCn1cc(N3C(=O)OCC3C(F)F)nc1-2)C(N)=O (centres undefined) + C#Cc1c(F)ccc2cc(O)cc(-c3ncc4c(N5CC6CCC(C5)N6)nc(OCC56CCCN5CC(F)C6)nc4c3F)c12,IC50,[1],> 10000 nM
same,IC50,[2],> 10000 nM
same,IC50,[3],> 10000 nM
same,IC50,[4],> 10000 nM
same,IC50,[5],9560 nM
same,IC50,[6],4910 nM
same,"viability, T/C",[7],99.8%
same,"viability, T/C",[8],102%
same,"viability, T/C",[9],112%
same,"viability, T/C",[10],110%
same,"viability, T/C","second compound 0.0316 µM, first compound 3.16 µM",114%
same,"viability, T/C","second compound 0.0316 µM, first compound 10 µM",66.2%
same,"viability, T/C",[11],95%
same,"viability, T/C",[12],102%
same,"viability, T/C",[13],109%
same,"viability, T/C",[14],114%
same,"viability, T/C","second compound 0.1 µM, first compound 3.16 µM",113%
same,"viability, T/C","second compound 0.1 µM, first compound 10 µM",73.7%
same,"viability, T/C",[15],97.1%
same,"viability, T/C",[16],102%
same,"viability, T/C",[17],112%
same,"viability, T/C",[18],115%
same,"viability, T/C","second compound 0.316 µM, first compound 3.16 µM",114%
same,"viability, T/C","second compound 0.316 µM, first compound 10 µM",70.3%
same,"viability, T/C",[19],94.6%
same,"viability, T/C",[20],101%
same,"viability, T/C",[21],112%
same,"viability, T/C",[22],115%
same,"viability, T/C","second compound 1 µM, first compound 3.16 µM",113%
same,"viability, T/C","second compound 1 µM, first compound 10 µM",62.6%
same,"viability, T/C",[23],98.4%
same,"viability, T/C",[24],102%
same,"viability, T/C",[25],110%
same,"viability, T/C",[26],114%
same,"viability, T/C","second compound 3.16 µM, first compound 3.16 µM",110%
same,"viability, T/C","second compound 3.16 µM, first compound 10 µM",47.7%
same,"viability, T/C",[27],96.6%
same,"viability, T/C",[28],100%
same,"viability, T/C",[29],98.6%
same,"viability, T/C",[30],94.4%
same,"viability, T/C","second compound 10 µM, first compound 3.16 µM",70.2%
same,"viability, T/C","second compound 10 µM, first compound 10 µM",17.4%
C=CC(=O)N1CCN(c2nc(OCC3CCCN3C)nc3c(F)c(-c4nc(N)cc(C)c4C(F)(F)F)c(Cl)cc23)C(C)C1 (centres undefined) + C#Cc1c(F)ccc2cc(O)cc(-c3ncc4c(N5CC6CCC(C5)N6)nc(OCC56CCCN5CC(F)C6)nc4c3F)c12,IC50,[1],> 1000 nM
same,IC50,[2],> 1000 nM
same,IC50,[3],> 1000 nM
same,IC50,[4],> 1000 nM
same,IC50,[5],> 1000 nM
same,IC50,[6],> 1000 nM
same,"viability, T/C","second compound 0.0316 µM, first compound 0.00316 µM",102%
same,"viability, T/C","second compound 0.0316 µM, first compound 0.01 µM",97.5%
same,"viability, T/C",[7],99.1%
same,"viability, T/C",[8],97.3%
same,"viability, T/C",[9],108%
same,"viability, T/C",[10],103%
same,"viability, T/C","second compound 0.1 µM, first compound 0.00316 µM",98.8%
same,"viability, T/C","second compound 0.1 µM, first compound 0.01 µM",101%
same,"viability, T/C",[11],102%
same,"viability, T/C",[12],106%
same,"viability, T/C",[13],107%
same,"viability, T/C",[14],112%
same,"viability, T/C","second compound 0.316 µM, first compound 0.00316 µM",96.1%
same,"viability, T/C","second compound 0.316 µM, first compound 0.01 µM",104%
same,"viability, T/C",[15],101%
same,"viability, T/C",[16],104%
same,"viability, T/C",[17],106%
same,"viability, T/C",[18],110%
same,"viability, T/C","second compound 1 µM, first compound 0.00316 µM",95.8%
same,"viability, T/C","second compound 1 µM, first compound 0.01 µM",104%
same,"viability, T/C",[19],107%
same,"viability, T/C",[20],105%
same,"viability, T/C",[21],101%
same,"viability, T/C",[22],112%
same,"viability, T/C","second compound 3.16 µM, first compound 0.00316 µM",103%
same,"viability, T/C","second compound 3.16 µM, first compound 0.01 µM",99.8%
same,"viability, T/C",[23],103%
same,"viability, T/C",[24],104%
same,"viability, T/C",[25],106%
same,"viability, T/C",[26],115%
same,"viability, T/C","second compound 10 µM, first compound 0.00316 µM",104%
same,"viability, T/C","second compound 10 µM, first compound 0.01 µM",101%
same,"viability, T/C",[27],100%
same,"viability, T/C",[28],105%
same,"viability, T/C",[29],99.6%
same,"viability, T/C",[30],104%
CC(C)n1nc(-c2ccc3oc(N)nc3c2)c2c(N)ncnc21,"viability, T/C",compound 0.000316 µM,105% [middle of 4 runs]
same,"viability, T/C",compound 0.001 µM,104% (2×) and 99.9% and 103%
same,"viability, T/C",compound 0.00316 µM,110% [middle of 4 runs]
same,"viability, T/C",compound 0.01 µM,99% and 112% (2×) and 109%
same,"viability, T/C",compound 0.0316 µM,52.1% and 119% (2×) and 94.3%
same,"viability, T/C",compound 0.1 µM,9.59% [middle of 4 runs]
same,IC50,curve of compound,33.1 nM and 62.7 nM and 55.5 nM
CCc1c2c(nc3ccc(O)cc13)-c1cc3c(c(=O)n1C2)COC(=O)[C@]3(O)CC + C=CC(=O)N1CCN(c2nc(OCC3CCCN3C)nc3c(F)c(-c4nc(N)cc(C)c4C(F)(F)F)c(Cl)cc23)C(C)C1,IC50,"curve of first compound, second compound 0.00316 µM",1.85 nM
same,IC50,"curve of first compound, second compound 0.01 µM",1.94 nM
same,IC50,[1],1.99 nM
same,IC50,[2],1.99 nM
same,IC50,[3],2.03 nM
same,IC50,[4],1.94 nM
same,"viability, T/C","second compound 0.00316 µM, first compound 0.000949 µM",106%
same,"viability, T/C","second compound 0.00316 µM, first compound 0.003 µM",9.93%
same,"viability, T/C","second compound 0.00316 µM, first compound 0.00949 µM",1.39%
same,"viability, T/C","second compound 0.00316 µM, first compound 0.03 µM",1.87%
same,"viability, T/C","second compound 0.00316 µM, first compound 0.0949 µM",2.37%
same,"viability, T/C","second compound 0.00316 µM, first compound 0.3 µM",1.53%
same,"viability, T/C","second compound 0.01 µM, first compound 0.000949 µM",101%
same,"viability, T/C","second compound 0.01 µM, first compound 0.003 µM",18.9%
same,"viability, T/C","second compound 0.01 µM, first compound 0.00949 µM",2.06%
same,"viability, T/C","second compound 0.01 µM, first compound 0.03 µM",3.03%
same,"viability, T/C","second compound 0.01 µM, first compound 0.0949 µM",2.18%
same,"viability, T/C","second compound 0.01 µM, first compound 0.3 µM",1.15%
same,"viability, T/C","second compound 0.0316 µM, first compound 0.000949 µM",103%
same,"viability, T/C","second compound 0.0316 µM, first compound 0.003 µM",20.9%
same,"viability, T/C","second compound 0.0316 µM, first compound 0.00949 µM",1.84%
same,"viability, T/C","second compound 0.0316 µM, first compound 0.03 µM",2.69%
same,"viability, T/C","second compound 0.0316 µM, first compound 0.0949 µM",2.18%
same,"viability, T/C","second compound 0.0316 µM, first compound 0.3 µM",0.6%
same,"viability, T/C","second compound 0.1 µM, first compound 0.000949 µM",104%
same,"viability, T/C","second compound 0.1 µM, first compound 0.003 µM",19.8%
same,"viability, T/C","second compound 0.1 µM, first compound 0.00949 µM",1.52%
same,"viability, T/C","second compound 0.1 µM, first compound 0.03 µM",1.4%
same,"viability, T/C","second compound 0.1 µM, first compound 0.0949 µM",1.53%
same,"viability, T/C","second compound 0.1 µM, first compound 0.3 µM",0.65%
same,"viability, T/C","second compound 0.316 µM, first compound 0.000949 µM",107%
same,"viability, T/C","second compound 0.316 µM, first compound 0.003 µM",20.4%
same,"viability, T/C","second compound 0.316 µM, first compound 0.00949 µM",1.92%
same,"viability, T/C","second compound 0.316 µM, first compound 0.03 µM",2.44%
same,"viability, T/C","second compound 0.316 µM, first compound 0.0949 µM",1.37%
same,"viability, T/C","second compound 0.316 µM, first compound 0.3 µM",0.74%
same,"viability, T/C","second compound 1 µM, first compound 0.000949 µM",116%
same,"viability, T/C","second compound 1 µM, first compound 0.003 µM",9.86%
same,"viability, T/C","second compound 1 µM, first compound 0.00949 µM",2.04%
same,"viability, T/C","second compound 1 µM, first compound 0.03 µM",2.87%
same,"viability, T/C","second compound 1 µM, first compound 0.0949 µM",1.52%
same,"viability, T/C","second compound 1 µM, first compound 0.3 µM",0.6%
CC1(C)CCC(Nc2ncc(C(F)(F)F)c(-c3c[nH]c4c(P(C)(C)=O)c(C#N)ccc34)n2)CN1 (centres undefined),"viability, T/C",compound 0.00949 µM,14.5% [middle of 4 runs]
same,"viability, T/C",compound 0.03 µM,8.74% [middle of 4 runs]
same,"viability, T/C",compound 0.0949 µM,9.57% [middle of 4 runs]
same,"viability, T/C",compound 0.3 µM,5.41% [middle of 4 runs]
Cc1nc(N2CCC3(CC2)COC(C)C3N)c(CO)nc1Sc1ccnc(N)c1Cl (centres undefined),"viability, T/C",compound 0.0316 µM,110% [middle of 4 runs]
same,"viability, T/C",compound 0.1 µM,99% [middle of 4 runs]
same,"viability, T/C",compound 0.316 µM,107% [middle of 4 runs]
same,"viability, T/C",compound 1 µM,100% [middle of 4 runs]
same,"viability, T/C",compound 3.16 µM,105% [middle of 4 runs]
same,"viability, T/C",compound 10 µM,103% [middle of 4 runs]
same,IC50,curve of compound,> 10000 nM
